Reference: US20110071158A1, “NEW COMPOUNDS” (BOEHRINGER INGELHEIM INTERNATIONAL GMBH, priority 2009, published 2011)

biological target: T1, PTK2 enzyme (Homo sapiens, UniProt Q05397); assay: PTK2 enzyme test, Assay 1 (DELFIA, poly-Glu-Tyr substrate, antibody PT60); type: biochemical; details: Assay 1 (values without *); 1 h pre-incubation, 2% DMSO
T1 construct: purchased Invitrogen PV3832
Experimental: This test uses active PTK2 enzyme (Invitrogen Code PV3832) and poly-Glu-Tyr (4:1, Sigma P-0275) as the kinase substrate. The kinase activity is detected through the phosphorylation of the substrate in a DELFIA™ assay. The phosphorylated substrate is detected with the europium-labelled phosphotyrosine antibody PT60 (Perkin Elmer, No.: AD00400).
In order to determine concentration-activity curves with PTK2-inhibitors the compounds are serially diluted in 10% DMSO/H2O and 10 μL of each dilution are placed in each well of a 96-well microtitre plate (clear plate with a U-shaped base, Greiner No. 650101) (the inhibitors are tested in duplicates) and mixed with 10 μL/well of PTK2 kinase (0.01 μg/well). PTK2 kinase has been correspondingly diluted beforehand with kinase dilution buffer (20 mM TRIS/HCl pH 7.5, 0.1 mM EDTA, 0.1 mM EGTA, 0.286 mM sodium orthovanadate, 10% glycerol with the addition of freshly prepared BSA (fraction V, 1 mg/mL) and DTT (1 mM)). The test compound and the PTK2 kinase are pre-incubated for 1 h at RT and shaken at 500 revolutions per min. The reaction is started by the addition of 10 μL/well poly (Glu,Tyr) substrate (25 μg/well poly (Glu, Tyr), 0.05 μg/well biotinylated poly (Glu,Tyr) dissolved in 250 mM TRIS/HCl pH 7.5, 9 mM DTT)—the final concentration of DMSO is 2%. Then 20 μL of ATP Mix (30 mM TRIS/HCl pH 7.5, 0.02% Brij, 0.2 mM sodium orthovanadate, 10 mM magnesium acetate, 0.1 mM EGTA, 1× phosphatase inhibitor cocktail 1 (Sigma, No.: P2850), 50 μM ATP (Sigma, No.: A3377; 15 mM stock solution)) are added. After 1 h of kinase reaction (the plates are shaken at 500 rpm), the reaction is stopped by the addition of 12 μL/well 100 mM EDTA, pH 8.0 and shaken for a further 5 min at RT (500 rpm). 55 μL of the reaction mixture are transferred into a streptavidin plate (Strepta Well High Bind (transparent, 96-well) made by Roche, No.: 11989685001) and incubated for 1 h at RT (shaking at 500 rpm). Then the microtitre plate is washed three times with 200 μL/well D-PBS (Invitrogen, No. 14190). 100 μL of a solution containing DELFIA Eu-N1 Anti-Phosphotyrosine PT60 antibody (Perkin Elmer, No.: AD0040, diluted 1:2000 in DELFIA test buffer (Perkin Elmer, No.: 1244-111)) is then added and the mixture is incubated for 1 h at RT (shaking at 500 rpm). Then the plate is washed three times with 200 μL/well DELFIA washing buffer (Perkin Elmer, No.: 1244-114), 200 μL/well strengthening solution (Perkin Elmer, No.: 1244-105) are added and the mixture is incubated for 10 min at RT (shaking at 300 rpm).
The time-delayed europium fluorescence is then measured in a microtitre plate reader (VICTOR^3, Perkin Elmer). […] Wells that contain test buffer instead of enzyme are used as a control of the background kinase activity.
The IC50 values are determined from analyses of the concentration activity by iterative calculation with the aid of a sigmoid curve analysis algorithm (FIFTY, based on Graph PAD Prism Version 3.03) with a variable Hill coefficient.

T1 sequence (Q05397 whole entry): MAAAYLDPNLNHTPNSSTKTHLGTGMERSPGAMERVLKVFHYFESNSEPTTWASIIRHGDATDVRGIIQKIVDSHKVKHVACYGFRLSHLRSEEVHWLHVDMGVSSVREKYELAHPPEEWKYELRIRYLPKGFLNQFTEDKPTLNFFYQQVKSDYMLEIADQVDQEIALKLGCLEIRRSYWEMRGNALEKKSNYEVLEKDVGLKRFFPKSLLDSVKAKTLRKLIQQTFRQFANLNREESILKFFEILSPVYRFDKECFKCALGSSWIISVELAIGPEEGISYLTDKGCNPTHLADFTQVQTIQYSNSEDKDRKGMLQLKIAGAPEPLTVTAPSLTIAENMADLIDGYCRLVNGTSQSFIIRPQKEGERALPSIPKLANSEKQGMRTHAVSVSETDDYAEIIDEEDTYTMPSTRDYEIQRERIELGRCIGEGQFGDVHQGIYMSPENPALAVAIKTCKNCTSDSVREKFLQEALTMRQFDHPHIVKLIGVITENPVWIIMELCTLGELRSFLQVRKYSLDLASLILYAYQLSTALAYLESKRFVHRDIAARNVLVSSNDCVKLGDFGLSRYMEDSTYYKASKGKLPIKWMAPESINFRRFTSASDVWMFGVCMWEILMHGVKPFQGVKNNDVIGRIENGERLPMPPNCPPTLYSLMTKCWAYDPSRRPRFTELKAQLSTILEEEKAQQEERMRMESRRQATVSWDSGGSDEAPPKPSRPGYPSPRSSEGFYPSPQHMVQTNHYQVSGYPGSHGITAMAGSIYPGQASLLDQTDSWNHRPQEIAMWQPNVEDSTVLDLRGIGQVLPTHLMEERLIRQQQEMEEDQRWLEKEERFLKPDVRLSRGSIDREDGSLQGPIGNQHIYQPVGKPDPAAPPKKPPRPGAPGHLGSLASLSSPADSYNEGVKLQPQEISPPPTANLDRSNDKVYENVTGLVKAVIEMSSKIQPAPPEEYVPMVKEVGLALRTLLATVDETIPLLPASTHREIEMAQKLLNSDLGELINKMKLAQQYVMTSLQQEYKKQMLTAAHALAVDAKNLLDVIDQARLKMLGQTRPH

Row | IC50 [nM] | SMILES
1 | 2 | COCCNC(=O)c1ccc(Nc2ncc(C(F)(F)F)c(N[C@@H]3CCCC[C@H]3N(C)C(C)=O)n2)c(OC)c1 [Example I-110]
2 | 1 | COc1cc(C(=O)N[C@@H]2CCCN(C)C2)ccc1Nc1ncc(C(F)(F)F)c(N[C@@H]2CCCC[C@H]2N(C)C(C)=O)n1 [Example I-111]
3 | 1 | COc1cc(C(=O)NCCCN(C)C)ccc1Nc1ncc(C(F)(F)F)c(N[C@@H]2CCCC[C@H]2N(C)C(C)=O)n1 [Example I-112]
4 | 5 | CON[C@H]1CCCC[C@H]1Nc1nc(Nc2ccc(C(=O)NC3CCN(C)CC3)cc2OC)ncc1C(F)(F)F [Example I-113]
5 | 1 | COc1cc(C(=O)NC2CCN(C)CC2)ccc1Nc1ncc(C(F)(F)F)c(N[C@@H]2CCCC[C@@H]2N(OC)C(C)=O)n1 [Example I-114]
6 | 1 | COc1cc(CN2CCOCC2)ccc1Nc1ncc(C(F)(F)F)c(N[C@@H]2CCCC[C@H]2NC(C)=O)n1 [Example I-115]
7 | 1 | COc1cc(CN2CCN(C)CC2)ccc1Nc1ncc(C(F)(F)F)c(N[C@@H]2CCCC[C@H]2NC(C)=O)n1 [Example I-116]
8 | 1 | COc1cc(CN2CCCC2)ccc1Nc1ncc(C(F)(F)F)c(N[C@@H]2CCCC[C@H]2NC(C)=O)n1 [Example I-117]
9 | 1 | COc1cc(CN(C)C)ccc1Nc1ncc(C(F)(F)F)c(N[C@@H]2CCCC[C@H]2NC(C)=O)n1 [Example I-118]
10 | 6 | CON[C@@H]1CCCC[C@H]1Nc1nc(Nc2ccc(C(=O)NC3CCN(C)CC3)cc2OC)ncc1C(F)(F)F [Example I-119]
11 | 2 | CCC(=O)N[C@@H]1CCCC[C@H]1Nc1nc(Nc2cc(F)c(C(=O)NC3CCN(C)CC3)cc2OC)ncc1C(F)(F)F [Example I-120]
12 | 3 | COc1cc(C(=O)NC2CCN(C)CC2)c(F)cc1Nc1ncc(C(F)(F)F)c(N[C@@H]2CCCC[C@H]2NC(=O)C(C)C)n1 [Example I-121]
13 | 0.73 | CCN1CCC(NC(=O)c2ccc(Nc3ncc(C(F)(F)F)c(N[C@@H]4CCC[C@H]4N(C)S(C)(=O)=O)n3)c(OC)c2)CC1 [Example I-129]
14 | 0.93 | COc1cc(C(=O)NOCCN(C)C)ccc1Nc1ncc(C(F)(F)F)c(N[C@@H]2CCCC[C@H]2N(C)S(C)(=O)=O)n1 [Example I-132]
15 | 1 | COc1cc(C(=O)NC2CCN(C)CC2)c(F)cc1Nc1ncc(C(F)(F)F)c(N[C@@H]2CCCC[C@H]2NS(C)(=O)=O)n1 [Example I-141]
16 | 0.94 | COc1cc(N2CCN(C)CC2)ccc1Nc1ncc(C(F)(F)F)c(N[C@@H]2CCCC[C@H]2N(C)S(C)(=O)=O)n1 [Example I-143]
17 | 3 | COc1cc(N2CCN(C(C)(C)C)CC2)ccc1Nc1ncc(C(F)(F)F)c(N[C@@H]2CCCC[C@H]2N(C)S(C)(=O)=O)n1 [Example I-145]
18 | 2 | CCN([C@@H]1CCCC[C@H]1Nc1nc(Nc2ccc(C(=O)NC3CCCN(C)C3)cc2OC)ncc1C(F)(F)F)S(C)(=O)=O (stereo partly drawn) [Example I-149]
19 | 2 | COc1cc(N2CCN(CC(=O)N(C)C)CC2)ccc1Nc1ncc(C(F)(F)F)c(N[C@@H]2CCCC[C@H]2N(C)S(C)(=O)=O)n1 [Example I-150]
20 | 1 | COc1cc(C(=O)NC2CCN(C)CC2)c(F)cc1Nc1ncc(C(F)(F)F)c(N[C@@H]2CCCC[C@H]2NC(C)=O)n1 [Example I-154]
21 | 2 | CCS(=O)(=O)N(C)[C@@H]1CCCC[C@H]1Nc1nc(Nc2ccc(C(=O)NCCN(C)C)cc2OC)ncc1C(F)(F)F [Example I-156]

Row | IC50 [nM] | SMILES
22 | 0.69 | COc1cc([C@@H](O)CO)ccc1Nc1ncc(C(F)(F)F)c(N[C@@H]2CCCC[C@H]2N(C)S(C)(=O)=O)n1 [Example I-157]
23 | 1 | CCN1CCC(NC(=O)c2cc(OC)c(Nc3ncc(C(F)(F)F)c(N[C@@H]4CCCC[C@H]4N(C)C(C)=O)n3)cc2F)CC1 [Example I-161]
24 | 1 | COc1cc(C(=O)NC2CCN(C)CC2)ccc1Nc1ncc(Cl)c(N[C@@H]2CCCC[C@H]2N(C)S(C)(=O)=O)n1 [Example I-162]
25 | 2 | COc1cc(C(=O)NC2CCCN(C)C2)ccc1Nc1ncc(Cl)c(N[C@@H]2CCCC[C@H]2N(C)S(C)(=O)=O)n1 (stereo partly drawn) [Example I-163]
26 | 3 | COCCN1CCC(NC(=O)c2cc(OC)c(Nc3ncc(Cl)c(N[C@@H]4CCCC[C@H]4N(C)S(C)(=O)=O)n3)cc2Cl)CC1 [Example I-167]
27 | 3 | COc1cc(C(=O)NC2CCN(C)CC2)c(Cl)cc1Nc1ncc(Cl)c(N[C@@H]2CCCC[C@H]2N(C)S(C)(=O)=O)n1 [Example I-168]
28 | 4 | CCN1CCC(NC(=O)c2cc(OC)c(Nc3ncc(Cl)c(N[C@@H]4CCCC[C@H]4N(C)S(C)(=O)=O)n3)cc2F)CC1 [Example I-169]
29 | 2 | COc1cc(C(=O)NCCN(C)C)c(F)cc1Nc1ncc(Cl)c(N[C@@H]2CCC[C@H]2N(C)S(C)(=O)=O)n1 [Example I-170]
30 | 2 | COc1cc(C(=O)NCCN(C)C)c(Cl)cc1Nc1ncc(Cl)c(N[C@@H]2CCCC[C@H]2N(C)S(C)(=O)=O)n1 [Example I-171]
31 | 2 | COc1cc(C(=O)NCCN(C)C)c(Cl)cc1Nc1ncc(Br)c(N[C@@H]2CCCC[C@H]2N(C)S(C)(=O)=O)n1 [Example I-172]
32 | 2 | COc1cc(Nc2ncc(C(F)(F)F)c(N[C@@H]3CCCC[C@H]3N(C)S(C)(=O)=O)n2)ccc1C(=O)NC1CCN(C)CC1 [Example I-173]
33 | 4 | COc1cc(C(=O)NC2CCN(C)CC2)c(F)cc1Nc1ncc(Cl)c(N[C@@H]2CCCC[C@H]2N(C)S(C)(=O)=O)n1 [Example I-174]
34 | 0.64 | COc1cc(C(=O)NC2CCN(C)CC2)ccc1Nc1ncc(C(C)C)c(N[C@@H]2CCCC[C@H]2N(C)S(C)(=O)=O)n1 [Example I-175]
35 | 2 | COc1cc(Nc2ncc(C(F)(F)F)c(N[C@@H]3CCCC[C@H]3N(C)S(C)(=O)=O)n2)ccc1NC(C)=O [Example I-177]
36 | 4 | COc1cc(N2CCN(C(C)(C)C)CC2)ccc1Nc1ncc(Br)c(N[C@@H]2CCCC[C@H]2N(C)S(C)(=O)=O)n1 [Example I-182]
37 | 4 | COc1cc(N2CCN(C(C)(C)C)CC2)ccc1Nc1ncc(Cl)c(N[C@@H]2CCCC[C@H]2N(C)S(C)(=O)=O)n1 [Example I-183]
38 | 4 | CC(=O)Nc1ccc(Nc2ncc(C(F)(F)F)c(N[C@@H]3CCCC[C@H]3N(C)S(C)(=O)=O)n2)cc1C [Example I-186]
39 | 6 | CC(=O)Nc1ccc(Nc2ncc(C(F)(F)F)c(N[C@@H]3CCCC[C@H]3N(C)S(C)(=O)=O)n2)cc1Cl [Example I-187]
40 | 16 | CCN([C@@H]1CCCC[C@H]1Nc1nc(Nc2ccc(NC(C)=O)c(C)c2)ncc1C(F)(F)F)S(C)(=O)=O [Example I-188]
41 | 9 | CCN([C@@H]1CCCC[C@H]1Nc1nc(Nc2ccc(NC(C)=O)c(OC)c2)ncc1C(F)(F)F)S(C)(=O)=O [Example I-189]
42 | 13 | COc1cc(Nc2ncc(Cl)c(N[C@@H]3CCCC[C@H]3NC(C)=O)n2)cc(OC)c1OC [Example I-190]
